In test [1] the target is T1, Glucocorticoid receptor (Homo sapiens, UniProt P04150).
T1 sequence (P04150 whole entry): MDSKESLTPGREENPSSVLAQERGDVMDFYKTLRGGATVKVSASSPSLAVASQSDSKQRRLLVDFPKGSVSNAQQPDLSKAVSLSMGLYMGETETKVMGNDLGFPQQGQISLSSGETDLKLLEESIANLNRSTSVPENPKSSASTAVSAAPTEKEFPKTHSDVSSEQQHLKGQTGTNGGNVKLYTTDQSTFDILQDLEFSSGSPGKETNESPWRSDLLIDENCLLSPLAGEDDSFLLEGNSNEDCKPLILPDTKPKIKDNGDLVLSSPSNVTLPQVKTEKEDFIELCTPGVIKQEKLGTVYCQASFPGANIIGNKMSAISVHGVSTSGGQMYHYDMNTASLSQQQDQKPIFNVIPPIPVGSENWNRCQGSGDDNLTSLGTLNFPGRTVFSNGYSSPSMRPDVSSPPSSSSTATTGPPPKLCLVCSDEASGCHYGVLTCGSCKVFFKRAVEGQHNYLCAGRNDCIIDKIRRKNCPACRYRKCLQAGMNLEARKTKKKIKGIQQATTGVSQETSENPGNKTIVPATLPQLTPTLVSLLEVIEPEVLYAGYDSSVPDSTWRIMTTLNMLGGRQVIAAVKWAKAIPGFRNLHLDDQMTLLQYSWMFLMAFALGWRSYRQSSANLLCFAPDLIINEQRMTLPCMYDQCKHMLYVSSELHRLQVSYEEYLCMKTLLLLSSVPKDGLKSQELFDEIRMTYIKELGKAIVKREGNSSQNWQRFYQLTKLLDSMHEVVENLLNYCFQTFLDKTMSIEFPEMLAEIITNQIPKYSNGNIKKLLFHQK
The experiment in a line: Displacement of fluorescent-labeled Dexamethasone from GR by fluorescent polarization assay.

Test [2] addresses T1, Glucocorticoid receptor. The experiment in a line: Activity at GR in human A549 cells by NF-kappaB transrepression assay. It counts as cell-based.
In a further test the target is T2, Progesterone receptor (Homo sapiens, UniProt P06401).
T2 sequence (P06401 whole entry): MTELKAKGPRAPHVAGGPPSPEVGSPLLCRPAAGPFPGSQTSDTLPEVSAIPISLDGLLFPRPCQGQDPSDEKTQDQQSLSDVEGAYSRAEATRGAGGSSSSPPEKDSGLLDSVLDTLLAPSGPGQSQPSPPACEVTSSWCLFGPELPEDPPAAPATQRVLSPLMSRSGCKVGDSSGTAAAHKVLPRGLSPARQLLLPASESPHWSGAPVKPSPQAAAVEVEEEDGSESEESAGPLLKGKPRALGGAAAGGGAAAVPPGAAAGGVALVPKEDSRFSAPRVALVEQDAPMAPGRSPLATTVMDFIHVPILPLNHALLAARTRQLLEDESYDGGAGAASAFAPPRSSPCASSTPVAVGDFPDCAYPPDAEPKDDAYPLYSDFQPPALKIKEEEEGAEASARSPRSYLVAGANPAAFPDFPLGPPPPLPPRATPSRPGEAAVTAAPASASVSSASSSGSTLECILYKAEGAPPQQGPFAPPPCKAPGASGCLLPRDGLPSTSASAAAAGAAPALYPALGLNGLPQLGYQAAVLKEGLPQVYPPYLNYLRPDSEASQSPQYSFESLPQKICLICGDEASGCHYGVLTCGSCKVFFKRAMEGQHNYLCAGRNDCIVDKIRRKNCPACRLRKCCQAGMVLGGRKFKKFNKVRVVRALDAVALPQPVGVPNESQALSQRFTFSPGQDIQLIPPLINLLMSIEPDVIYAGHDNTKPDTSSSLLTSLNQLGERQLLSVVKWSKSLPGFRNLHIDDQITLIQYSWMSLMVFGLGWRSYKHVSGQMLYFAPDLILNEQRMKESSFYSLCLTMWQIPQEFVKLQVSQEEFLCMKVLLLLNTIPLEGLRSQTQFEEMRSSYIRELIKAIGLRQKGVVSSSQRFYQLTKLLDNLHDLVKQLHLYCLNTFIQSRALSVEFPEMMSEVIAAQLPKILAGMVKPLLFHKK
Briefly: Binding affinity to PR.

Test [3] addresses T1, Glucocorticoid receptor. The experiment in a line: Antagonist activity at GR in human A549 cells transfected with luciferase gene linked to MMTV promoter assessed as inhibition of dexamethasone-induced luciferase transactivation activity after 24 hrs. Type of test: functional, cell-based.
The next test has as its target T3, Androgen receptor (Homo sapiens, UniProt P10275).
T3 sequence (P10275 whole entry): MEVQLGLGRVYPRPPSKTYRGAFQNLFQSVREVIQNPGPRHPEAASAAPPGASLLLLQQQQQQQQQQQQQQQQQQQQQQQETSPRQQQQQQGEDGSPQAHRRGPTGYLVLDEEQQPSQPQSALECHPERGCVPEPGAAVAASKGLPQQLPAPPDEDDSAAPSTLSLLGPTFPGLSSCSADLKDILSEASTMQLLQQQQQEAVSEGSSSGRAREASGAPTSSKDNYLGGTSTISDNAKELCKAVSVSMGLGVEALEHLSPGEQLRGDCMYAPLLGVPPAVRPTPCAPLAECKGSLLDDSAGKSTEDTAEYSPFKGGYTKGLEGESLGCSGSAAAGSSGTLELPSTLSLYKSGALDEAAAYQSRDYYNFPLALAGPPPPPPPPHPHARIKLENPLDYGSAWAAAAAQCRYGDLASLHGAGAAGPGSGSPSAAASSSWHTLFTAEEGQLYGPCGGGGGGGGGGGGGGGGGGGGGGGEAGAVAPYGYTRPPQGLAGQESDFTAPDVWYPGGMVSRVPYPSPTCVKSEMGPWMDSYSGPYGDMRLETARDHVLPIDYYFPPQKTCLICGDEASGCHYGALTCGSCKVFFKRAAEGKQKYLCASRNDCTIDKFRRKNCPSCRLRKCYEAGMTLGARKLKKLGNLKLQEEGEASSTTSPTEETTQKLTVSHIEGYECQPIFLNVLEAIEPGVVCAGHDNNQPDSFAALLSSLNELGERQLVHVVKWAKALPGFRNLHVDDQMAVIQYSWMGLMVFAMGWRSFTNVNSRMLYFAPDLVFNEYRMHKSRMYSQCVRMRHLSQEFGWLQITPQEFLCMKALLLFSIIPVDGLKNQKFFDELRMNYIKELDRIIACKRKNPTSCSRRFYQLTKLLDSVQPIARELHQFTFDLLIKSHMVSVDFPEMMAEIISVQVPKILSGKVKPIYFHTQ

Molecules are shown by their SMILES.

On to `CC(C)NS(=O)(=O)c1ccc(-c2ccc3c(cnn3-c3ccc(F)cc3)c2)c(C(F)(F)F)c1`, for which the IC50 at Glucocorticoid receptor [1] is 0.0126 µM; against Glucocorticoid receptor [2], above 10 µM; at Progesterone receptor it was 3.16 µM; at Glucocorticoid receptor [3] it was 1.26 µM; against Androgen receptor it was above 10 µM.
For `Fc1ccc(-n2ncc3cc(-c4ccccc4)ccc32)cc1`, the IC50 at Glucocorticoid receptor [1] was 3.16 µM; on Glucocorticoid receptor [2] it was above 10 µM; on Progesterone receptor it was above 10 µM; on Androgen receptor, above 10 µM.
Take `O=S(=O)(Nc1ccc(-c2ccc3c(cnn3-c3ccc(F)cc3)c2)c(C(F)(F)F)c1)c1ccccc1`: the IC50 is 0.0158 µM at Glucocorticoid receptor [1]; above 10 µM on Glucocorticoid receptor [2]; above 10 µM at Progesterone receptor; 1.58 µM at Glucocorticoid receptor [3]; 6.31 µM against Androgen receptor.
For `Oc1cccc(-c2ccc3c(cnn3-c3ccc(F)cc3)c2)c1`, the IC50 is 0.794 µM on Glucocorticoid receptor [1], above 10 µM on Glucocorticoid receptor [2], 2.51 µM at Progesterone receptor and above 10 µM at Androgen receptor.
`CCOc1cccc(-c2ccc3c(cnn3-c3ccc(F)cc3)c2)c1`: the IC50 on Glucocorticoid receptor [1] was 2.51 µM; at Glucocorticoid receptor [2] it was above 10 µM; on Progesterone receptor, above 10 µM; at Androgen receptor, above 10 µM.
On to `Oc1ccc(-c2ccc3c(cnn3-c3ccc(F)cc3)c2)cc1`, for which the IC50 on Glucocorticoid receptor [1] was 0.631 µM; at Glucocorticoid receptor [2], above 10 µM; at Progesterone receptor, above 10 µM; against Androgen receptor, above 10 µM.
Turning to `CS(=O)(=O)Nc1ccc(-c2ccc3c(cnn3-c3ccc(F)cc3)c2)c(C(F)(F)F)c1`, the IC50 on Glucocorticoid receptor [1] is 0.01 µM; on Glucocorticoid receptor [2], above 10 µM; at Progesterone receptor it was above 10 µM; on Glucocorticoid receptor [3], 1.58 µM; on Androgen receptor, 5.01 µM.
Regarding `Fc1ccc(-n2ncc3cc(-c4ccccc4C(F)(F)F)ccc32)cc1`, the IC50 on Glucocorticoid receptor [1] is 0.251 µM; on Glucocorticoid receptor [2], above 10 µM; at Progesterone receptor, 2.51 µM; at Androgen receptor, above 10 µM.
As to `Fc1ccc(-n2ncc3cc(-c4cccc(C(F)(F)F)c4)ccc32)cc1`, the IC50 at Glucocorticoid receptor [1] was 3.16 µM; on Glucocorticoid receptor [2], above 10 µM; on Progesterone receptor, 1.58 µM; on Androgen receptor it was above 10 µM.
`Cc1ccc(-c2ccc3c(cnn3-c3ccc(F)cc3)c2)cc1`: the IC50 at Glucocorticoid receptor [1], at Glucocorticoid receptor [2], at Progesterone receptor and against Androgen receptor was above 10 µM in each case.
Regarding `CCOc1ccccc1-c1ccc2c(cnn2-c2ccc(F)cc2)c1`, the 50% inhibitory concentration (IC50) at Glucocorticoid receptor [1] is 0.501 µM; against Glucocorticoid receptor [2], above 10 µM; on Progesterone receptor, above 10 µM; against Androgen receptor it was above 10 µM.
Take `Cc1cccc(-c2ccc3c(cnn3-c3ccc(F)cc3)c2)c1`: the IC50 at Glucocorticoid receptor [1] was 3.16 µM; against Glucocorticoid receptor [2] it was above 10 µM; on Progesterone receptor it was above 10 µM; against Androgen receptor, above 10 µM.
In the case of `CCS(=O)(=O)Nc1ccc(-c2ccc3c(cnn3-c3ccc(F)cc3)c2)c(C(F)(F)F)c1`, the IC50 at Glucocorticoid receptor [1] is 0.01 µM; against Glucocorticoid receptor [2] it was above 10 µM; at Progesterone receptor, above 10 µM; on Glucocorticoid receptor [3], 2 µM; at Androgen receptor, 5.01 µM.
Turning to `Fc1ccc(-n2ncc3cc(-c4ccc(C(F)(F)F)cc4)ccc32)cc1`, the IC50 at Glucocorticoid receptor [1], on Glucocorticoid receptor [2], on Progesterone receptor and against Androgen receptor was above 10 µM in each case.
Consider `N#Cc1ccccc1-c1ccc2c(cnn2-c2ccc(F)cc2)c1`, for which the IC50 is 0.398 µM on Glucocorticoid receptor [1], above 10 µM against Glucocorticoid receptor [2], above 10 µM at Progesterone receptor and above 10 µM at Androgen receptor.
For `N#Cc1cccc(-c2ccc3c(cnn3-c3ccc(F)cc3)c2)c1`, the half-maximal inhibitory concentration (IC50) is above 2.51 µM on Glucocorticoid receptor [1], above 10 µM on Glucocorticoid receptor [2], above 10 µM at Progesterone receptor and above 10 µM against Androgen receptor.
With `N#Cc1ccc(-c2ccc3c(cnn3-c3ccc(F)cc3)c2)cc1`, the IC50 on Glucocorticoid receptor [1] was above 10 µM; against Glucocorticoid receptor [2] it was above 10 µM; on Progesterone receptor it was 2 µM; on Androgen receptor, above 10 µM.
For `Cc1ccccc1-c1ccc2c(cnn2-c2ccc(F)cc2)c1`, the IC50 at Glucocorticoid receptor [1] is 1.26 µM; against Glucocorticoid receptor [2], above 10 µM; on Progesterone receptor, 6.31 µM; at Androgen receptor it was above 10 µM.
